How the values were obtained:
[1] = biological target: T1, contractile response induced by histamine in isolated guinea-pig ileum (Cavia porcellus, UniProt P31389); assay: Antihistaminic activity (Effect on the contractile response induced by histamine in isolated guinea-pig ileum); design: species or system guinea-pig (male Hartley); details: dissociation constant KB (M), method of Furchgott, 30 min contact with test compound, 28° C.
T1 construct: An approximately 20 mm strip of isolated ileum was mounted vertically; from tissue; host or cells: isolated ileum strip, male Hartley guinea-pig
T1 sequence (P31389 whole entry): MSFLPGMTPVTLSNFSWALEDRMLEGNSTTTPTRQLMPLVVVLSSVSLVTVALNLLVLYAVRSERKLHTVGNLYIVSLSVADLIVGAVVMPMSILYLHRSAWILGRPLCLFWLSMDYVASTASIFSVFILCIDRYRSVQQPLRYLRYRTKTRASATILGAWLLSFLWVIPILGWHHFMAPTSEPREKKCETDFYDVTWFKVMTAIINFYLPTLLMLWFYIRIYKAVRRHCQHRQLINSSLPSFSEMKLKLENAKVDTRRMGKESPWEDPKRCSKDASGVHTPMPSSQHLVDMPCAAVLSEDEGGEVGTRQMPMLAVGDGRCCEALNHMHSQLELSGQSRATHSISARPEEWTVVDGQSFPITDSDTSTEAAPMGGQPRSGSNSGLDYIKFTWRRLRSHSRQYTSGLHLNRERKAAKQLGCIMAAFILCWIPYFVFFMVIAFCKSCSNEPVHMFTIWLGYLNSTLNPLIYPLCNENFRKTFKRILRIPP
Description: 1. Antihistaminic activity (Effect on the contractile response induced by histamine in isolated guinea-pig ileum)
Male Hartley guinea-pigs, 5-8 weeks of age, were sacrificed and the ileum was excised. […] The contractile response was recorded on a recticorder an isotonic transducer. The concentration-contractile response curve to histamine was constructed before and after 30 min contact with test compounds.

[2] = test system: 48 hr homologous passive cutaneous anaphylaxis (PCA) in rat; assay: Antiallergic activity (48 hr homologous passive cutaneous anaphylaxis (PCA) in rat); format: in vivo, rat (male Wistar); details: oral, 1 hr before antigen challenge, vs control group, read-out: Inhibition rate (%) of PCA
Description: 2. Antiallergic activity (48 hr homologous passive cutaneous anaphylaxis (PCA) in rat)
Male Wistar rats, 6 weeks of age, were passively sensitized by intracutaneous injection in the back of a volume of 0.1 ml of anti-DNP-As rat serum. Forty-eight hours later, the animals were administered an intravenous injection of 0.5 ml saline solution containing 1 mg of DNP-As and 5 mg of Evans blue. The animals were sacrificed 30 min after the injection and the extravasated dye was extracted with 1N KOH and acetone, neutralized with 1N H3 PO4 and the absorbance at 620 nm was determined. The test compounds were administered orally in a dose of 1 mg/Kg 1 hr before antigen challenge. The inhibitory activity of a test compound was expressed as percent inhibition of PCA as compared with the control group.

**Q.** Which Kb [1] does the source give for `CN1CCN(C2=Nc3ccccc3Cc3ccccc32)CC1` [Perlapine, reference compound] here?
**A.** 7.08e-10 M

**Q.** Which Kb [1] does the source give for `CCOC(=O)CCN1CCN(C2=Nc3ccccc3Sc3ccc(Cl)cc32)CC1` [Example 13, Ethyl 4-(2-Chlorodibenzo[b,f][1,4]thiazepin-11-yl)-1-piperazinepropionate] here?
**A.** 5.13e-08 M

**Q.** Which inhibition at 1 mg/kg [2] does the source give for `Clc1ccc2c(c1)C(N1CCNCC1)=Nc1ccccc1O2` [Amoxapine, reference compound] here?
**A.** 50.9%

**Q.** How did the Kb [1] turn out when `O=C(O)CCCCCN1CCN(C2=Nc3ccccc3Cc3ccccc32)CC1` [Example 33, 4-(11H-Dibenz[b,e]azepin-6-yl)-1-piperazinecaproic acid] was run?
**A.** 2.69e-08 M

**Q.** With `CN1CCN2c3ccccc3Cc3ccccc3C2C1` (stereo not shown) [Mianserin, reference compound] as the compound, how does the inhibition at 1 mg/kg [2] read?
**A.** 61.4%

**Q.** Which Kb [1] does the source give for `CCOC(=O)CCN1CCN2c3ccccc3Cc3ccccc3C2C1` (stereo not shown) [Example 35, Ethyl 3-(1,2,3,4,10,14b-Hexahydrodibenzo[c,f]pyrazino[1,2-a]azepin-2-yl)propionate] here?
**A.** 2.69e-09 M

**Q.** Which Kb [1] does the source give for `CCOC(=O)CCCN1CCN(C2=Nc3ccccc3Sc3ccc(Cl)cc32)CC1` [Example 15, Ethyl 4-(2-Chlorodibenzo [b,f][1,4]thiazepin-11-yl)-1-piperazinebutyrate] here?
**A.** 3.02e-08 M

**Q.** `CCOC(=O)CCCCN1CCN(C2=Nc3ccccc3Cc3ccccc32)CC1` [Example 27, Ethyl 4-(11H-Dibenz[b,e]azepin-6-yl)-1-piperazinevalerate] was tested. Which Kb [1] did it give?
**A.** 7.94e-09 M

**Q.** `CCOC(=O)CCCCCN1CCN(C2=Nc3ccccc3Oc3ccc(Cl)cc32)CC1` [Example 6] was tested. Which Kb [1] did it give?
**A.** 3.09e-09 M

**Q.** For `CN1CCN(C2=Nc3ccccc3Sc3ccc(Cl)cc32)CC1` [Clothiapine, reference compound], which Kb [1] is on record?
**A.** 1.35e-09 M

**Q.** With `O=C(O)CCN1CCN2c3ccccc3Cc3ccccc3C2C1` (stereo not shown) [Example 41, 3-(1,2,3,4,10,14b-Hexahydrodibenzo[c,f]pyrazino[1,2-a]azepin-2-yl)propionicacid] as the compound, how does the inhibition at 1 mg/kg [2] read?
**A.** 76.5%

**Q.** What about the Kb [1] of the same compound?
**A.** 2.51e-08 M

**Q.** How did the Kb [1] turn out when `CCOC(=O)CCCN1CCN(C2=Nc3ccccc3Cc3ccccc32)CC1` [Example 26, Ethyl 4-(11H-Dibenz[b,e]azepin-6-yl)-1-piperazinebutyrate] was run?
**A.** 1.35e-08 M

**Q.** What does the source list for `O=C(O)CCN1CCN(C2=Nc3ccccc3Sc3ccc(Cl)cc32)CC1` [Example 19, 4-(2-Chlorodibenzo[b,f][1,4]thiazepin-11-yl)-1-piperazinepropionic acid]?
**A.** inhibition at 1 mg/kg [2]: 64.6%; Kb [1]: 5.25e-08 M

**Q.** Which Kb [1] does the source give for `CCOC(=O)CCCN1CCN(C2=Nc3ccccc3Oc3ccc(Cl)cc32)CC1` [Example 4, Ethyl 4-(2-Chlorodibenz[b,f][1,4]oxazepin-11-yl)-1-piperazinebutyrate] here?
**A.** 4.9e-09 M

**Q.** Which Kb [1] does the source give for `CCOC(=O)CCCN1CCN2c3ccccc3Cc3ccccc3C2C1` (stereo not shown) [Example 37, Ethyl 4-(1,2,3,4,10,14b-Hexahydrodibenzo[c,f]pyrazino[1,2-a]azepin-2-yl)butyrate] here?
**A.** 2.4e-09 M

**Q.** `CCOC(=O)CN1CCN(C2=Nc3ccccc3Cc3ccccc32)CC1` [Example 25, Ethyl 4-(11H-Dibenz[b,e]azepin-6-yl)-1-piperazineacetate] was tested. Which Kb [1] did it give?
**A.** 4.57e-08 M

**Q.** How did the inhibition at 1 mg/kg [2] turn out when `O=C(O)CCCCCN1CCN(C2=Nc3ccccc3Sc3ccc(Cl)cc32)CC1` [Example 22, 4-(2-Chlorodibenzo[b,f][1,4]thiazepin-11-yl)-1-piperazinecaproic acid] was run?
**A.** 77.2%

**Q.** What about the Kb [1] of the same compound?
**A.** 3.47e-08 M

**Q.** Which Kb [1] does the source give for `CCOC(=O)CCCCN1CCN2c3ccccc3Cc3ccccc3C2C1` (stereo not shown) [Example 38, Ethyl 5-(1,2,3,4,10,14b-Hexahydrodibenzo[c,f]pyrazino[1,2-a]azepin-2-yl)valerate] here?
**A.** 1.1e-08 M

**Q.** Which inhibition at 1 mg/kg [2] does the source give for `O=C(O)CCN1CCN(C2=Nc3ccccc3Oc3ccc(Cl)cc32)CC1` [Example 8, 4-(2-Chlorodibenz[b,f][1,4]oxazepin-11-yl)-1-piperazinepropionic acid] here?
**A.** 88.6%

**Q.** What about the Kb [1] of the same compound?
**A.** 5.01e-08 M

**Q.** Which inhibition at 1 mg/kg [2] does the source give for `O=C(O)CCCCCN1CCN(C2=Nc3ccccc3Oc3ccc(Cl)cc32)CC1` [Example 11] here?
**A.** 86.4%

**Q.** Which Kb [1] does the source give for `CCOC(=O)CCCCCN1CCN(C2=Nc3ccccc3Cc3ccccc32)CC1` [Example 28, Ethyl 4-(11H-Dibenz[b,e]azepin-6-yl)-1-piperazinecaproate] here?
**A.** 1.74e-08 M

**Q.** What does the source list for `O=C(O)CCCCN1CCN(C2=Nc3ccccc3Sc3ccc(Cl)cc32)CC1` [Example 21, 4-(2-Chlorodibenzo [b,f][1,4]thiazepin-11-yl)-1-piperazinevaleric acid]?
**A.** inhibition at 1 mg/kg [2]: 78.5%; Kb [1]: 5.89e-08 M

**Q.** For `O=C(O)CCN1CCN(C2=Nc3ccccc3Cc3ccccc32)CC1` [Example 30, 4-(11H-Dibenz[b,e]azepin-6-yl)-1-piperazinepropionic acid], which Kb [1] is on record?
**A.** 5.75e-08 M

**Q.** What does the source list for `O=C(O)CCCN1CCN2c3ccccc3Cc3ccccc3C2C1` (stereo not shown) [Example 42, 4-(1,2,3,4,10,14b-Hexahydrodibenzo[c,f]pyrazino[1,2-a]azepin-2-yl)butyric acid]?
**A.** inhibition at 1 mg/kg [2]: 65.6%; Kb [1]: 3.09e-08 M

**Q.** For `O=C(O)CCCCN1CCN(C2=Nc3ccccc3Cc3ccccc32)CC1` [Example 32, 4-(11H-Dibenz[b,e]azepin-6-yl)-1-piperazinevaleric acid], which Kb [1] is on record?
**A.** 5.75e-08 M

**Q.** `CCOC(=O)CCCCCN1CCN(C2=Nc3ccccc3Sc3ccc(Cl)cc32)CC1` [Example 17, Ethyl 4-(2-Chlorodibenzo[b,f][1,4]thiazepin-11-yl)-1piperazinecaproate] was tested. Which Kb [1] did it give?
**A.** 5.5e-08 M

**Q.** With `CCOC(=O)CCCCCN1CCN2c3ccccc3Cc3ccccc3C2C1` (stereo not shown) [Example 39, Ethyl 6-(1,2,3,4,10,14b-Hexahydrodibenzo[c,f]Pyrazino[1,2-a]azepin-2-yl)caproate] as the compound, how does the Kb [1] read?
**A.** 1.29e-08 M

**Q.** What does the source list for `O=C(O)CCCCCN1CCN2c3ccccc3Cc3ccccc3C2C1` (stereo not shown) [Example 44, 6-(1,2,3,4,10,14b-Hexahydrodibenzo[c,f]pyrazino[1,2-a]azepin-2-yl)caproic acid]?
**A.** inhibition at 1 mg/kg [2]: 71.8%; Kb [1]: 3.24e-08 M

**Q.** With `O=C(O)CN1CCN2c3ccccc3Cc3ccccc3C2C1` (stereo not shown) [Example 40, 2-(1,2,3,4,10,14b-Hexahydrodibenzo[c,f]pyrazino[1,2-a]azepin-2-yl)acetic acid] as the compound, how does the Kb [1] read?
**A.** 1.82e-08 M

**Q.** `O=C(O)CCCN1CCN(C2=Nc3ccccc3Oc3ccc(Cl)cc32)CC1` [Example 9, 4-(2-Chlorodibenz[b,f][1,4]oxazepin-11-yl)-1-piperazinebutyric acid] was tested. Which inhibition at 1 mg/kg [2] did it give?
**A.** 95.8%

**Q.** What about the Kb [1] of the same compound?
**A.** 4.79e-08 M

**Q.** For `CCOC(=O)CCN1CCN(C2=Nc3ccccc3Cc3ccccc32)CC1` [Example 24, Ethyl 4-(11H-Dibenz[b,e]azepin-6-yl)-1-piperazinepropionate], which Kb [1] is on record?
**A.** 8.91e-09 M

**Q.** How did the inhibition at 1 mg/kg [2] turn out when `O=C(O)CCCCN1CCN2c3ccccc3Cc3ccccc3C2C1` (stereo not shown) [Example 43, 5-(1,2,3,4,10,14b-Hexahydrodibenzo[c,f]pyrazino[1,2-a]azepin-2-yl)valeric acid] was run?
**A.** 73.9%

**Q.** And the Kb [1]?
**A.** 4.79e-08 M

**Q.** For `CCOC(=O)CN1CCN2c3ccccc3Cc3ccccc3C2C1` (stereo not shown) [Example 36, Ethyl 2-(1,2,3,4,10,14b-Hexahydrodibenzo[c,f]pyrazino[1,2-a]azepin-2-yl)acetate], which Kb [1] is on record?
**A.** 3.24e-08 M

**Q.** How did the inhibition at 1 mg/kg [2] turn out when `O=C(O)CCCCN1CCN(C2=Nc3ccccc3Oc3ccc(Cl)cc32)CC1` [Example 10, 4-(2-Chlorodibenz[b,f][1,4]oxazepin-11-yl)-1-piperazinevaleric acid] was run?
**A.** 84.1%

**Q.** And the Kb [1]?
**A.** 5.5e-08 M

**Q.** How did the Kb [1] turn out when `CCOC(=O)CCCCN1CCN(C2=Nc3ccccc3Oc3ccc(Cl)cc32)CC1` [Example 5, Ethyl 4-(2-Chlorodibenz[b,f][1,4]oxazepin-11-yl)-1-piperazinevalerate] was run?
**A.** 1.05e-08 M

**Q.** With `CCOC(=O)CCN1CCN(C2=Nc3ccccc3Oc3ccc(Cl)cc32)CC1` [Example 2, Ethyl 4-(2-Chlorodibenz[b,f][1,4]oxazepin-11-yl)-1-piperazinepropionate] as the compound, how does the Kb [1] read?
**A.** 1.2e-08 M

**Q.** Which results are given for `O=C(O)CCCN1CCN(C2=Nc3ccccc3Sc3ccc(Cl)cc32)CC1` [Example 20, 4-(2-Chlorodibenzo[b,f][1,4]thiazepin-11-yl)-1-piperazinebutyric acid]?
**A.** inhibition at 1 mg/kg [2]: 77.7%; Kb [1]: 5.75e-08 M

**Q.** `CCOC(=O)CCCCN1CCN(C2=Nc3ccccc3Sc3ccc(Cl)cc32)CC1` [Example 16, Ethyl 4-(2-Chlorodibenzo[b,f][1,4]thiazepin-11-yl)-1-piperazinevalerate] was tested. Which Kb [1] did it give?
**A.** 4.68e-08 M

— patent US5344828A, “Piperazinealkanoic acid and a pharmaceutical composition comprising the same” (Hokuriku Pharmaceutical Co., Ltd., priority 1990, dated 1994)
